US9518015B2, “EP1 receptor ligands” (LABORATORIOS DEL DR. ESTEVE, S.A., priority 2011, dated 2016)

Legend:
human EP1 receptor [1] = target: T1, human EP1 receptor (Homo sapiens, UniProt P34995); assay: Test 1: Human EP1 receptor radioligand binding assay ([3H]-PGE2, transfected HEK-293 cell membranes); design: expressed in transfected cells; host or cells: HEK-293 cell membranes; details: read-out: Results of Test 1 (Binding assay), % inh
T1 sequence (P34995 1-402): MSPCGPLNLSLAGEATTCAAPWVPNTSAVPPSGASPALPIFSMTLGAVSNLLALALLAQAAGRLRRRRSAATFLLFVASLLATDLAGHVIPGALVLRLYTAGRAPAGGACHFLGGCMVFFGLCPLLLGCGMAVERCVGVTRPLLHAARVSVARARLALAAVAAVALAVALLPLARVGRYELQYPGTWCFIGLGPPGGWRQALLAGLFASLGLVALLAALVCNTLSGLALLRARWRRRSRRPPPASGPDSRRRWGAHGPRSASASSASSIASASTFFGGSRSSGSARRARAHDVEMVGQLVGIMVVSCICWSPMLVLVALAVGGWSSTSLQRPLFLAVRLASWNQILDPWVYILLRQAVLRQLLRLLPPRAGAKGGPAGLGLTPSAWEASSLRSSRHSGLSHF
Description: Test 1: Human EP1 Receptor Radioligand Binding Assay
To investigate binding properties of EP1 receptor ligands to human EP1 receptor, transfected HEK-293 cell membranes and [3H]-PGE2 (Perkin Elmer) were used. In 96-well plates the assay was carried out with a total reaction volume of 250 μl, containing 25 μl of membrane suspension (30 μg protein/well), 25 μl of [3H]-PGE2 (10 nM) in either absence or presence of 25 μl of either buffer or PGE2 (10 μM) for total and non-specific binding, respectively. Binding buffer contained 10 mM MES, 1 mM MgCl2 and 1 mM EDTA at pH 6.0. Plates were incubated at 25° C. for 60 minutes. After the incubation period, 200 μl of incubate were transferred to MultiScreen HTS, FB plates (Millipore), filtered and plates were washed 6 times with ice-cold 10 mM MES, 1 mM MgCl2 and 1 mM EDTA at pH 6.0. Filters were dried and counted in a MicroBeta scintillation counter (Perkin-Elmer) using EcoScint liquid scintillation cocktail.
Percentage inhibition was calculated relating compounds activity to the 0% inhibition of the wells incubated with 10 nM [3H]-PGE2 alone (total binding) and 100% inhibition of the wells incubated with 10 nM [3H]-PGE2 plus 10 μM PGE2 (non-specific binding).

human EP1 receptor [2] = target: T1, human EP1 receptor; assay: Test 2: Measurement of IP1 responses by HTRF, suspended HEK-293 cells stably expressing human EP1 receptors, PGE2 30 nM; format: cell-based; design: expressed in transfected cells; details: HEK293, at 10 μM, read-out: Results of Test 2 (Functional assay), % inh
Method in brief: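 Suspended cells preincubated with compound for 15 min at 37 °C, then stimulated with 30 nM PGE2 for 90 min at 37 °C. IP1 quantified by competitive HTRF (665/620 nm) after lysis. Percent inhibition scaled between PGE2 alone (0%) and PGE2 plus 1 μM reference antagonist (100%).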

human EP1 receptor [3] = target: T1, human EP1 receptor; assay: Test 3: Measurement of IP1 responses by HTRF, HEK-293 cells stably expressing human EP1 receptors incubated o/n, PGE2 10 nM; format: cell-based; design: expressed in transfected cells; details: HEK293, read-out: Results of Test 3 (Functional assay), % inh
Description: Test 3: Measurement of IP1 Responses by Homogeneous Time Resolved Fluorescence
IP1 measurements on HEK-293 cells that stably expressed human EP1 receptors were performed by using a system based on Homogeneous Time Resolved Fluorescense (HTRF) (Gabriel et al., 2003). This technology allows the direct measurement of IP1 in living cells. The principle of this assay is based on competition between IP1 produced by cells and IP1-d2 conjugate for the binding with monoclonal anti-IP1-cryptate conjugate. The HTRF IP1 kit from CisBio was used according to the manufacturer's directions. The experimental procedure was performed as stated below.
40,000 cells per well were added to 96-well culture plates in 40 μl of Optimem and incubated o/n at 37° C. Optimem was replaced by 40 μl of stimulation buffer (supplied by the kit) and compounds were then added in 20 μl of stimulation buffer and incubated at 37° C. for 15 minutes followed by 10 μl of PGE2 to a final concentration of 10 nM. After 90 minutes at 37° C., the reaction was stopped lysing the cells with a mixture of 15 μl of cryptate and 15 μl of IP1-d2 prepared in the lysis buffer supplied by the manufacturer. Plates were incubated for an additional hour at room temperature and read at 665 nm/620 nm using an UltraEvolution Plate reader (Tecan).
Antagonist percentage inhibition was calculated relating compounds activity to the 0% inhibition of the wells incubated with 10 nM PGE2 alone and 100% inhibition of the wells incubated with 10 nM PGE2 plus 10 μM of the reference antagonist.

Row | SMILES | inhibition at 10 µM (human EP1 receptor [1]) [%] | inhibition at 10 µM (human EP1 receptor [2]) [%] | inhibition at 10 µM (human EP1 receptor [3]) [%]
1 | O=C(O)c1cccc2c1ccn2Cc1cc(F)ccc1OCc1ccc(F)c(Br)c1 [Example 24, 1-(2-((3-bromo-4-fluorobenzyl)oxy)-5-fluorobenzyl)-1H-indole-4-carboxylic acid] | 45 to 75 | > 75 | 
2 | O=C(O)c1cccc2c1OCCN2Cc1ccccc1OCc1ccc(F)cc1F [Example 122] | > 75 |  | > 75
3 | O=C(O)c1cccc2c1ccn2Cc1cc(Br)ccc1OCc1ccc(F)c(Br)c1 [Example 25, 1-(5-bromo-2-((3-bromo-4-fluorobenzyl)oxy)benzyl)-1H-indole-4-carboxylic acid] | 45 to 75 | > 75 | 
4 | CC(C)COc1ccc(Cl)cc1CN1CCOc2c(C(=O)O)cccc21 [Example 196] | > 75 |  | > 75
5 | O=C(O)c1cccc2c1ccn2Cc1cc(Cl)ccc1OCc1ccccc1F [Example 45, 1-(5-chloro-2-((2-fluorobenzyl)oxy)benzyl)-1H-indole-4-carboxylic acid] | > 75 | > 75 | 
6 | O=C(O)c1ccc2c(ccn2Cc2cc(C(F)(F)F)ccc2OCc2ccc(Br)cc2F)c1 [Example 75, 1-(2-((4-bromo-2-fluorobenzyl)oxy)-5-(trifluoromethyl)benzyl)-1H-indole-5-carboxylic acid] | 45 to 75 | > 75 | 
7 | O=C(O)c1cccc2c1ccn2Cc1ccccc1OCc1ccc(F)cc1F [Example 54, 1-(2-((2,4-difluorobenzyl)oxy)benzyl)-1H-indole-4-carboxylic acid] | 45 to 75 | > 75 | 
8 | O=C(O)c1cccc2c1ccn2Cc1cc(C(F)(F)F)ccc1OCc1ccc(F)cc1F [Example 51, 1-(2-((2,4-difluorobenzyl)oxy)-5-(trifluoromethyl)benzyl)-1H-indole-4-carboxylic acid] | 45 to 75 | > 75 | 
9 | O=C(O)c1cccc2c1ccn2Cc1cc(Cl)ccc1OCc1ccc(F)c(F)c1F [Example 21, 1-(5-chloro-2-((2,3,4-trifluorobenzyl)oxy)benzyl)-1H-indole-4-carboxylic acid] | 45 to 75 | > 75 | 
10 | O=C(O)c1cccc2c1ccn2Cc1cc(C(F)(F)F)ccc1OCc1cccc(F)c1 [Example 49, 1-(2-((3-fluorobenzyl)oxy)-5-(trifluoromethyl)benzyl)-1H-indole-4-carboxylic acid] | 45 to 75 | > 75 | 
11 | O=C(O)c1cccc2c1ccn2Cc1cc(Cl)ccc1OCc1ccc(C(F)(F)F)cc1F [Example 47, 1-(5-chloro-2-((2-fluoro-4-(trifluoromethyl)benzyl)oxy)benzyl)-1H-indole-4-carboxylic acid] | > 75 | > 75 | 
12 | O=C(O)c1ccc2c(ccn2Cc2cc(Br)ccc2OCc2ccc(F)cc2C(F)(F)F)c1 [Example 69] | 45 to 75 | > 75 | 
13 | O=C(O)c1cccc2c1ccn2Cc1cc(F)ccc1OCc1cc(F)c(F)c(F)c1 [Example 34, 1-(5-fluoro-2-((3,4,5-trifluorobenzyl)oxy)benzyl)-1H-indole-4-carboxylic acid] | 45 to 75 | > 75 | 

Next, values leading:

Row | inhibition at 10 µM (human EP1 receptor [1]) [%] | inhibition at 10 µM (human EP1 receptor [2]) [%] | inhibition at 10 µM (human EP1 receptor [3]) [%] | SMILES
14 | > 75 |  | > 75 | O=C(O)c1cccc2c1cnn2Cc1cc(Cl)ccc1OC1CCC1 [Example 137]
15 | > 75 | > 75 |  | O=C(O)c1ncnc2c1ccn2Cc1cc(Cl)ccc1OCc1ccc(F)cc1F [Example 99]
16 | > 75 |  | > 75 | CC(C)(F)COc1ccc(Cl)cc1Cn1ncc2c(C(=O)O)cccc21 [Example 125]
17 | > 75 |  | > 75 | COCc1cn(Cc2cc(Cl)ccc2OCc2ccc(Cl)cc2F)c2cccc(C(=O)O)c12 [Example 207, Sodium 1-(5-chloro-2-(4-chloro-2-fluorobenzyloxy)benzyl)-3-(methoxymethyl)-1H-indole-4-carboxylate]
18 | 45 to 75 | > 75 |  | O=C(O)c1cccc2c1ccn2Cc1cc(F)ccc1OCc1c(F)cccc1F [Example 33, 1-(2-((2,6-difluorobenzyl)oxy)-5-fluorobenzyl)-1H-indole-4-carboxylic acid]
19 | > 75 | > 75 |  | O=C(O)c1cccc2c1ccn2Cc1cc(Br)ccc1OCc1ccc(Br)cc1F [Example 55, 1-(5-bromo-2-((4-bromo-2-fluorobenzyl)oxy)benzyl)-1H-indole-4-carboxylic acid]
20 | > 75 | > 75 |  | O=C(O)c1cccc2c1ccn2Cc1cc(Cl)ccc1OCc1ccc(Cl)cc1F [Example 48, 1-(5-chloro-2-((4-chloro-2-fluorobenzyl)oxy)benzyl)-1H-indole-4-carboxylic acid]
21 | 45 to 75 | > 75 |  | O=C(O)c1cccc2c1ccn2Cc1cc(Cl)ccc1OCc1c(F)c(F)cc(F)c1F [Example 13, 1-(5-chloro-2-((2,3,5,6-tetrafluorobenzyl)oxy)benzyl)-1H-indole-4-carboxylic acid]
22 | > 75 | > 75 |  | O=C(O)c1cccc2c1ccn2Cc1cc(Cl)ccc1OCc1ccc(F)cc1Cl [Example 12, 1-(5-chloro-2-((2-chloro-4-fluorobenzyl)oxy)benzyl)-1H-indole-4-carboxylic acid]
23 | 45 to 75 | > 75 |  | O=C(O)c1ccc2c(ccn2Cc2cc(F)ccc2OCc2ccc(F)c(Br)c2)c1 [Example 68, 1-(2-((3-bromo-4-fluorobenzyl)oxy)-5-fluorobenzyl)-1H-indole-5-carboxylic acid]
24 | > 75 | > 75 |  | O=C(O)c1cccc2c1ccn2Cc1cc(Cl)ccc1OCc1ccc(C(F)(F)F)cc1C(F)(F)F [Example 14]
25 | > 75 | > 75 |  | O=C(O)c1cccc2c1ccn2Cc1cc(Cl)ccc1OCc1ccc(C(F)(F)F)cc1 [Example 11, 1-(5-chloro-2-((4-(trifluoromethyl)benzyl)oxy)benzyl)-1H-indole-4-carboxylic acid]
26 | > 75 | > 75 |  | O=C(O)c1cccc2c1ccn2Cc1cc(Cl)ccc1OCc1cc(F)ccc1F [Example 29, 1-(5-chloro-2-((2,5-difluorobenzyl)oxy)benzyl)-1H-indole-4-carboxylic acid]
27 | 45 to 75 | > 75 |  | O=C(O)c1cccc2c1ccn2Cc1cc(F)ccc1OCc1ccc(F)cc1Cl [Example 19, 1-(2-((2-chloro-4-fluorobenzyl)oxy)-5-fluorobenzyl)-1H-indole-4-carboxylic acid]
28 | 45 to 75 | > 75 |  | O=C(O)c1cccc2c1ccn2Cc1cc(Cl)ccc1OCc1ccc(F)c(Br)c1 [Example 17, 1-(2-((3-bromo-4-fluorobenzyl)oxy)-5-chlorobenzyl)-1H-indole-4-carboxylic acid]
